The values that follow come from ChEMBL document CHEMBL1201862, “PubChem BioAssay data set” (2004).

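Where inhibition never reached the appropriate level, the endpoint shown equals the highest concentration tested. Otherwise, values were interpolated linearly from a five-concentration, 48-hour dose response in 96-well plates. GI50 is the concentration that inhibits growth by half.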 Calls of active or inactive are those of the source. Rule as the data show it: active = GI50 up to about 1.1 µM and inactive = higher. A value given as a limit tells only on which side of the number the result lay.

Among the test systems are MOLT-4; OVCAR-3; HCC 2998; HCT-15; Malme-3M; RPMI-8226; BT-549; SK-OV-3; U-251; M14; NCI/ADR-RES; PC-3; UACC-62; T47D; 786-0; A498; IGROV-1; HOP-92; K562; SNB-75.
Assay in all cases: NCI-60 cell line screen, 48 h

On to `COC(=O)/C=C/CC(=O)NS(C)(=O)=O`, for which the GI50 was > 10 µM (inactive) in the experiment on MOLT-4; > 10 µM (inactive) in the experiment on OVCAR-3; > 10 µM (inactive) in the experiment on HCC 2998; over 10 µM in the experiment with HCT-15; > 10 µM (inactive) in the experiment with Malme-3M; > 10 µM (inactive) with RPMI-8226. Besides, the GI50 with BT-549, in the experiment with SK-OV-3, in the experiment on U-251, in the experiment with M14, in the experiment on NCI/ADR-RES and in the experiment on PC-3 was > 10 µM (inactive) throughout. Besides, the GI50 in the experiment on UACC-62, with T47D, with 786-0, in the experiment with A498 and in the experiment on IGROV-1 was > 10 µM (inactive) throughout.

With `O=c1cc(-c2ccccc2)nc(-n2[nH]c3c(c2=O)CCCC3)[nH]1`, the GI50 in the experiment on MOLT-4 was 2.9 µM (inactive); with HOP-92, 2.85 µM (inactive); in the experiment on HCT-15 it was 1.7 µM; with Malme-3M, 11.1 µM (inactive); with RPMI-8226, 4.17 µM (inactive); with BT-549 it was 9.38 µM (inactive). The GI50 is 17.4 µM (inactive) with SK-OV-3; 2.55 µM (inactive) in the experiment with U-251; 5.68 µM (inactive) in the experiment on M14; 5 µM (inactive) in the experiment with PC-3; 2.32 µM (inactive) with UACC-62; 1.56 µM (inactive) in the experiment on T47D. Moreover, the GI50 with K562 is 2.83 µM (inactive); in the experiment with 786-0 it was 1.91 µM (inactive); in the experiment with SNB-75, 3.13 µM (inactive); in the experiment on A498 it was 17.6 µM (inactive); with IGROV-1 it was 4.53 µM (inactive).

On to `C=C1C(=O)OC2/C=C(\COC(C)=O)CCC(OC(C)=O)C3=CC(OC3=O)C12` (centres undefined), for which the GI50 was 1.58 µM (inactive) in the experiment with MOLT-4; 4.15 µM (inactive) in the experiment on OVCAR-3; 14.4 µM (inactive) in the experiment on HCC 2998; 3.49 µM (inactive) in the experiment on HOP-92; 2.94 µM with HCT-15; 2.15 µM (inactive) in the experiment with Malme-3M. Further, the GI50 is 3.53 µM (inactive) with RPMI-8226; 5.38 µM (inactive) in the experiment with BT-549; 14.6 µM (inactive) in the experiment with SK-OV-3; 12.2 µM (inactive) in the experiment on U-251; 2.91 µM (inactive) in the experiment with M14; 16.4 µM (inactive) with PC-3. Besides, the GI50 is 4.26 µM (inactive) in the experiment on UACC-62; 16.9 µM (inactive) with T47D; 2.3 µM (inactive) in the experiment on K562; 6.56 µM (inactive) in the experiment with 786-0; 15.9 µM (inactive) in the experiment with SNB-75; 16 µM (inactive) with A498. Besides, in the experiment with IGROV-1, the GI50 was 23.8 µM (inactive).

With `c1ccc2c(c1)SCCCSCCCS2`, the GI50 in the experiment with MOLT-4 was 67.6 µM (inactive); in the experiment with OVCAR-3 it was > 100 µM (inactive); in the experiment with HCC 2998 it was > 100 µM (inactive); in the experiment on HOP-92 it was 60.1 µM (inactive); in the experiment with HCT-15, over 100 µM; in the experiment on BT-549, > 100 µM (inactive). In addition, the GI50 in the experiment on SK-OV-3, with U-251, in the experiment with M14, in the experiment on NCI/ADR-RES, with PC-3 and with UACC-62 was > 100 µM (inactive) each time. Moreover, the GI50 in the experiment with T47D, with K562, in the experiment on 786-0, with SNB-75 and in the experiment on IGROV-1 was > 100 µM (inactive) in each case.

With `CC1=C(C(=O)Nc2ccccc2)C(c2ccc(C3C(C(=O)Nc4ccccc4)=C(C)NC(C)=C3C(=O)Nc3ccccc3)cc2)C(C(=O)Nc2ccccc2)=C(C)N1`, the GI50 is 1.96 µM (inactive) in the experiment on MOLT-4; 4.38 µM (inactive) with OVCAR-3; 2.47 µM (inactive) with HCC 2998; 3.51 µM (inactive) in the experiment with HOP-92; 2.72 µM in the experiment on HCT-15; 1.89 µM (inactive) in the experiment on Malme-3M. Also, the GI50 in the experiment with RPMI-8226 is 2.61 µM (inactive); in the experiment on BT-549, 2.55 µM (inactive); in the experiment with SK-OV-3, 13.1 µM (inactive); with U-251, 1.49 µM (inactive); in the experiment on M14, 2.5 µM (inactive); in the experiment on PC-3, 3.23 µM (inactive). The GI50 is 1.67 µM (inactive) with UACC-62; 2.7 µM (inactive) in the experiment on T47D; 2.67 µM (inactive) in the experiment on K562; 2.54 µM (inactive) in the experiment on 786-0; 8.2 µM (inactive) in the experiment on SNB-75; 8.99 µM (inactive) in the experiment on A498. The GI50 with IGROV-1 is 2.52 µM (inactive).

In the case of `CC(=O)OC12c3ccccc3C(c3ccccc31)C1C(=O)N(N=C(C)C)C(=O)C12` (centres undefined), the GI50 with MOLT-4 was > 100 µM (inactive); in the experiment with OVCAR-3, > 100 µM (inactive); with HCC 2998, > 100 µM (inactive); in the experiment with HCT-15 it was over 100 µM; with Malme-3M, 63.2 µM (inactive); in the experiment with RPMI-8226, > 100 µM (inactive). The GI50 in the experiment on BT-549, with SK-OV-3, in the experiment on U-251, in the experiment on M14, in the experiment with NCI/ADR-RES and in the experiment with PC-3 was > 100 µM (inactive) each time. Moreover, the GI50 in the experiment with UACC-62 is > 100 µM (inactive); in the experiment with T47D it was 70.8 µM (inactive); in the experiment with K562 it was > 100 µM (inactive); with 786-0 it was > 100 µM (inactive); in the experiment on SNB-75, 51.9 µM (inactive); in the experiment with IGROV-1, > 100 µM (inactive).

In the case of `Cc1ccc2c(c1)C(=S)N1CSCC1c1nncn1-2` (centres undefined), the GI50 with MOLT-4 was > 100 µM (inactive); with OVCAR-3, > 100 µM (inactive); with HCC 2998 it was > 100 µM (inactive); in the experiment with HCT-15, over 100 µM; in the experiment with Malme-3M it was > 100 µM (inactive); in the experiment on RPMI-8226 it was > 100 µM (inactive). Moreover, the GI50 in the experiment on BT-549, in the experiment on SK-OV-3, in the experiment on U-251, in the experiment with M14, in the experiment with NCI/ADR-RES and in the experiment with PC-3 was > 100 µM (inactive) throughout. For the same compound, the GI50 with UACC-62, with T47D, in the experiment on K562, with 786-0, in the experiment with SNB-75 and in the experiment with A498 was > 100 µM (inactive) in each case. In addition, in the experiment on IGROV-1, the GI50 was > 100 µM (inactive).

Take `O=C(NC1=C(Cl)C(=O)c2ccccc2C1=O)c1ccc(F)cc1`: the GI50 was 2.24 µM (inactive) with MOLT-4; 2.53 µM (inactive) in the experiment on OVCAR-3; 3.48 µM (inactive) in the experiment on HCC 2998; 1.61 µM (inactive) with HOP-92; 0.535 µM in the experiment with HCT-15; 1.52 µM (inactive) in the experiment with Malme-3M. Further, the GI50 in the experiment on RPMI-8226 was 2.51 µM (inactive); in the experiment with BT-549, 3.46 µM (inactive); with U-251 it was 1.85 µM (inactive); in the experiment on M14, 2.6 µM (inactive); in the experiment on NCI/ADR-RES it was 3.37 µM (inactive); in the experiment with PC-3, 1.13 µM (inactive). The GI50 was 0.279 µM (active) in the experiment on UACC-62; 1.9 µM (inactive) with T47D; 0.91 µM (active) in the experiment with K562; 10.8 µM (inactive) in the experiment with 786-0; 5.83 µM (inactive) in the experiment with SNB-75; 1.7 µM (inactive) in the experiment with IGROV-1.

On to `COC(=O)CCC1(C)C2CCC1/C(=N/O)C2` (centres undefined), for which the GI50 was > 100 µM (inactive) with MOLT-4; > 100 µM (inactive) in the experiment with OVCAR-3; > 100 µM (inactive) in the experiment on HCC 2998; over 100 µM in the experiment on HCT-15; > 100 µM (inactive) with Malme-3M; > 100 µM (inactive) with RPMI-8226. Also, the GI50 with BT-549, with SK-OV-3, in the experiment on U-251, in the experiment on M14, in the experiment on NCI/ADR-RES and in the experiment on PC-3 was > 100 µM (inactive) each time. The GI50 with UACC-62, in the experiment with T47D, in the experiment on K562, in the experiment with 786-0, in the experiment on SNB-75 and in the experiment with A498 was > 100 µM (inactive) each time. In addition, in the experiment on IGROV-1, the GI50 was > 100 µM (inactive).

On to `O=C(C/N=C(\CN(c1ccccc1)c1ccccc1)Oc1c([N+](=O)[O-])cc([N+](=O)[O-])cc1[N+](=O)[O-])N1CCNCC1`, for which the GI50 was > 100 µM (inactive) with MOLT-4; > 100 µM (inactive) in the experiment on OVCAR-3; > 100 µM (inactive) with HCC 2998; 67.5 µM (inactive) with HOP-92; over 100 µM in the experiment with HCT-15; > 100 µM (inactive) with Malme-3M. Besides, the GI50 was > 100 µM (inactive) with RPMI-8226; > 100 µM (inactive) in the experiment with BT-549; 0.622 µM (active) in the experiment on SK-OV-3; > 100 µM (inactive) with U-251; > 100 µM (inactive) in the experiment with M14; > 100 µM (inactive) in the experiment on PC-3. In addition, the GI50 was 43 µM (inactive) with UACC-62; > 100 µM (inactive) in the experiment on T47D; > 100 µM (inactive) with K562; > 100 µM (inactive) in the experiment on 786-0; 10.5 µM (inactive) in the experiment on SNB-75; 56.8 µM (inactive) in the experiment on IGROV-1.

In the case of `COc1cccc(-c2nc(O)c3ccccc3n2)c1OC`, the GI50 in the experiment with MOLT-4 was > 100 µM (inactive); in the experiment on OVCAR-3, > 100 µM (inactive); in the experiment with HCC 2998, > 100 µM (inactive); with HCT-15 it was over 100 µM; with Malme-3M it was > 100 µM (inactive); in the experiment with RPMI-8226, 2.99 µM (inactive). The GI50 in the experiment with BT-549, with SK-OV-3, in the experiment with U-251, in the experiment on M14, in the experiment with NCI/ADR-RES and with PC-3 was > 100 µM (inactive) in each case. In addition, the GI50 in the experiment on UACC-62 is 51.8 µM (inactive); with T47D, > 100 µM (inactive); in the experiment with 786-0, > 100 µM (inactive); in the experiment with SNB-75, 46.1 µM (inactive); in the experiment on A498 it was > 100 µM (inactive); with IGROV-1, > 100 µM (inactive).
